Measurements reported in publication PMC9687798, “Atypical Substrates of the Organic Cation Transporter 1” (Biomolecules, 2022).
Where a chain is given by its changes, count along the chain named. “Also recorded” adds a separate entry of the source.

Tests used:
OCT3 = molecular target: T1, OCT3 (Homo sapiens, UniProt O75751); assay: Cellular uptake ratio, OCT3-overexpressing HEK293 cells vs empty vector; type: cell-based; conditions: based on ratio uptake data at 1 µM
T1 construct: expressed in transfected cells; host or cells: HEK293, stably transfected; gift from Dr. Koepsell and Dr. Gorbulev (University of Würzburg)
T1 sequence (O75751 1-556): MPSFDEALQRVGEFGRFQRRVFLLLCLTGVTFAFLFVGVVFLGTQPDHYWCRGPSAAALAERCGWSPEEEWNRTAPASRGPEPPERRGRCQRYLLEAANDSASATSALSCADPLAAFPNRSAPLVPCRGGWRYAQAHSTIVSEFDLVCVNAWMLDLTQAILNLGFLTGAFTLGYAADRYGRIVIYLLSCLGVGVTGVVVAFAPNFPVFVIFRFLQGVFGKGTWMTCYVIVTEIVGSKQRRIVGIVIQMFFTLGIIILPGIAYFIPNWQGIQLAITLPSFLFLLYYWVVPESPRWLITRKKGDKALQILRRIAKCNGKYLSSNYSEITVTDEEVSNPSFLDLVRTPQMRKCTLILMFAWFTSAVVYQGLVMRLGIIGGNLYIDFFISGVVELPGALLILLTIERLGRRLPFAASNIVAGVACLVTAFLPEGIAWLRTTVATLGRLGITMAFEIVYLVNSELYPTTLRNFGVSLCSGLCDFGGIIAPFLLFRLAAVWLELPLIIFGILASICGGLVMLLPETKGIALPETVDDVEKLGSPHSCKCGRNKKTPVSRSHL
Procedure: (§1) The wild-type cell lines of OCT1 and OCT2, as well as the variant cell lines OCT1*2 and *3, were generated using the Flp-In system (Thermo Fisher Scientific, Darmstadt, Germany) as described in previous publications. The cell line overexpressing OCT3 was a kind gift from Dr. Koepsell and Dr. Gorbulev (University of Würzburg, Germany). Cells transfected with the empty pcDNA5/FRT vector were used for the transport experiments as a control cell line. All cells were cultured approximately up to passage 30.
(§2) Forty-eight hours before the transport experiments, 600,000 cells were plated on 12-well plates pre-coated with poly-D-lysine and incubated at 37 °C with 5% CO2. The prepared 12-well plate with cells was positioned on a heating plate pre-warmed to 37 °C. After removing the medium, the cells were washed with 37 °C HBSS+ (10 mM HEPES in Hank’s balanced salt solution, pH 7.4). Then, one pre-defined concentration of a substrate was added to each well. The incubation period was stopped by adding 2 mL of 4 °C HBSS+ and removing the cells from the heating plate. The cells were washed twice with 4 °C HBSS+. For cell lysis, the cells were incubated for 15 min with 500 µL of 80% acetonitrile (LGC Standards, Wesel, Germany), which contained a respective internal standard (Table 1).
(§3) For concentration-dependent transport, the cells were incubated with defined substrate concentrations (0.1, 1, 10, 30, 100, 300, 600, 1000 µM) for the respective pre-defined incubation times. […] The uptake by a transporter was normalised to the uptake by empty vector-transfected cells. […] The results of transport experiments were normalized to the total protein concentration per well. Total protein quantification was performed using a bicinchoninic acid assay with bovine serum albumin as standard.
(§4) The ratios of cellular uptake were calculated by dividing the total uptake of transporter-overexpressing cells by the total uptake into empty vector transfected cells. The concentration-dependent cellular net uptake was used for analysis of transport kinetics by subtracting for each substrate concentration the uptake of empty vector-transfected cells from the uptake of transporter-overexpressing cells. […] The intrinsic clearance Clint was expressed with the ratio of Vmax and KM.

OCT1*3 (R61C) = molecular target: T2, OCT1*3 (R61C) (Homo sapiens, UniProt O15245, R61C); assay: Cellular uptake by HEK293 cells overexpressing OCT1*3; type: cell-based; conditions: 1 µM substance
T2 construct: expressed in transfected cells
T2 sequence (O15245 1-554 R61C): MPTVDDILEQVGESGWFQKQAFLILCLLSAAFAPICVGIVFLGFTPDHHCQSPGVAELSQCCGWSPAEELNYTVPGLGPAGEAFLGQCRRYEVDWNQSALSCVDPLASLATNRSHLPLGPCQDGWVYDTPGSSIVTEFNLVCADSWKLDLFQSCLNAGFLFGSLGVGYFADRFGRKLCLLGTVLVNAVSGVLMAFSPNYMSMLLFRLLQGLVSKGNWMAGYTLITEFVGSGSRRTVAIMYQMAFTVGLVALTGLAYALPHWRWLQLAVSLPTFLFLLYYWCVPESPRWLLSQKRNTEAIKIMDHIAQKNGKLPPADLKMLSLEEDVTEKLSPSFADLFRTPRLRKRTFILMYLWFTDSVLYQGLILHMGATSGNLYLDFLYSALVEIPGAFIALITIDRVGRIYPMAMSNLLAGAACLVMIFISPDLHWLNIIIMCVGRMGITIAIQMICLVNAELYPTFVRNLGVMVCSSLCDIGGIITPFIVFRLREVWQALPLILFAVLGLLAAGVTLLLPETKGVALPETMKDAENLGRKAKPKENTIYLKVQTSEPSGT
Procedure: as §1, with “The transport experiments were performed using HEK293 cells that overexpress human OCT1*1 (wild-type), mutant human OCT1 D474N, variant human OCT1*2 (M420del) and OCT1*3 (R61C), wild-type human OCT2, and OCT3 after stable transfection. The wild-type” for “The wild-type”
as §2
(§5) For time-dependent transport, the cells were incubated with 1 µM of the substance for 15 to 240 s to determine the linear uptake range ≥ 15 s. For concentration-dependent transport, the cells were incubated with defined substrate concentrations (0.1, 1, 10, 30, 100, 300, 600, 1000 µM) for the respective pre-defined incubation times. […]; 100 µM) and pre-defined incubation times. The uptake by a transporter was normalised to the uptake by empty vector-transfected cells. […] The results of transport experiments were normalized to the total protein concentration per well. Total protein quantification was performed using a bicinchoninic acid assay with bovine serum albumin as standard.
(§6) The ratios of cellular uptake were calculated by dividing the total uptake of transporter-overexpressing cells by the total uptake into empty vector transfected cells. The concentration-dependent cellular net uptake was used for analysis of transport kinetics by subtracting for each substrate concentration the uptake of empty vector-transfected cells from the uptake of transporter-overexpressing cells. The transport kinetic parameters Vmax and KM were determined with non-linear regression by using the Michaelis–Menten equation for net uptake data and by using the Michaelis–Menten equation extended with a linear term for total uptake data (GraphPad Prism 5.01, GraphPad software, LA Jolla, CA, USA). The intrinsic clearance Clint was expressed with the ratio of Vmax and KM.

human OCT1*1 (wild-type) [1] = molecular target: T3, human OCT1*1 (wild-type) (Homo sapiens, UniProt O15245); assay: Concentration-dependent uptake (transport kinetics) in HEK293 cells overexpressing OCT1 wild-type; conditions: for Clint (±SEM): intrinsic clearance = ratio of Vmax and KM, OCT1 wild-type
T3 sequence (O15245 1-554): T2 sequence (O15245 1-554 R61C) with C61R

wild-type human OCT2 = molecular target: T4, wild-type human OCT2 (Homo sapiens, UniProt O15244); assay: Cellular uptake ratio, OCT2-overexpressing HEK293 cells vs empty vector; type: cell-based; conditions: based on ratio uptake data at 1 µM
T4 sequence (O15244 1-555): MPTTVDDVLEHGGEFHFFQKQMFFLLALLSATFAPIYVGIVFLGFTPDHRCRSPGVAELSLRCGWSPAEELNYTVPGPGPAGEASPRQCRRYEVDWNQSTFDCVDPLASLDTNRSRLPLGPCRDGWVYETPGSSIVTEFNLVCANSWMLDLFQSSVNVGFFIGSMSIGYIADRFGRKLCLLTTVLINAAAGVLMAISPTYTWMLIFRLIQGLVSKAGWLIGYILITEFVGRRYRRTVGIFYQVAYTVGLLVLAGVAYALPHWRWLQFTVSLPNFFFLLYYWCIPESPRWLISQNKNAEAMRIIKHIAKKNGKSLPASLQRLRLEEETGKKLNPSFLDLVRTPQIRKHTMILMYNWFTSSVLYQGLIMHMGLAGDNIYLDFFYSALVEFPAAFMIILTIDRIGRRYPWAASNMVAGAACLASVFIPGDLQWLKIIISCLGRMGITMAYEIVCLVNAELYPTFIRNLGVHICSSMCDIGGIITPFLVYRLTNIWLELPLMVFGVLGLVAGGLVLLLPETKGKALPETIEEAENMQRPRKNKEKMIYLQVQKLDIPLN
Procedure: as §1, §2, §3, §4

mutant human OCT1 D474N = molecular target: T5, mutant human OCT1 D474N (Homo sapiens, UniProt O15245, D474N); assay: Cellular uptake by HEK293 cells overexpressing variant OCT1 D474N; type: cell-based; conditions: p < 0.01
T5 construct: expressed in transfected cells
T5 sequence (O15245 1-554 D474N): T2 sequence (O15245 1-554 R61C) with C61R, D474N

human OCT1*1 (wild-type) [2] = molecular target: T3, human OCT1*1 (wild-type); assay: Cellular uptake ratio, OCT1-overexpressing HEK293 cells vs empty vector; type: cell-based; conditions: based on ratio uptake data at 1 µM
Procedure: as §1, §2, §3, §4

[3] = Concentration-dependent uptake into empty vector-transfected HEK293 cells; type: cell-based, human; conditions: human, empty vector (pcDNA5/FRT)-transfected HEK293 cells, pH 7.4; empty vector-transfected HEK cells; read-out: intrinsic clearance
Procedure: as §1, with “The transport experiments were performed using HEK293 cells that overexpress human OCT1*1 (wild-type), mutant human OCT1 D474N, variant human OCT1*2 (M420del) and OCT1*3 (R61C), wild-type human OCT2, and OCT3 after stable transfection. The wild-type” for “The wild-type”
as §2, §5, §6

[4] = tested on: empty vector-transfected HEK cells; assay: as above; type: cell-based, human; conditions: uptake into empty vector-transfected cells
Procedure: as §1, with “The transport experiments were performed using HEK293 cells that overexpress human OCT1*1 (wild-type), mutant human OCT1 D474N, variant human OCT1*2 (M420del) and OCT1*3 (R61C), wild-type human OCT2, and OCT3 after stable transfection. The wild-type” for “The wild-type”
as §2, §5, §6

uptake by OCT1*3 in comparison to OCT1*1 (OCT1*3 (R61C))	Clint (±SEM) (human OCT1*1 (wild-type) [1])	Clint (±SEM) (human OCT1*1 (wild-type) [1]; listed as methyldopa)	microsomal CLint [3]	SMILES	OCT3 transport category (OCT3)	OCT1 substrate classification from concentration-dependent uptake (human OCT1*1 (wild-type) [1]; good >5, poor 1–5, non-substrate <1 µL/mg protein/min or uptake not above empty vector)	OCT2 transport category (wild-type human OCT2)	enhancement of uptake by OCT1 D474N compared to wild-type (mutant human OCT1 D474N)	OCT1 transport category (human OCT1*1 (wild-type) [2])	Km [4]	Vmax [4]
reduction in uptake				Nc1ccn([C@@H]2CS[C@H](CO)O2)c(=O)n1 [Lamivudine, lamivudine]	0 (no transport by OCT1, OCT2, and OCT3 occurred (i.e., no kinetic parameters or uptake ratio <2 without significance))						
				C[N+](C)(C)[C@@H](Cc1c[nH]c2ccccc12)C(=O)[O-] [Hypaphorine, hypaphorine]	0 (no transport by OCT1, OCT2, and OCT3 occurred (i.e., no kinetic parameters or uptake ratio <2 without significance))	linear increase in total uptake of both cell lines	0 (no transport by OCT1, OCT2, and OCT3 occurred (i.e., no kinetic parameters or uptake ratio <2 without significance))	two-fold enhancement; also recorded: significantly increased uptake by the variant OCT1 D474N	0 (no transport by OCT1, OCT2, and OCT3 occurred (i.e., no kinetic parameters or uptake ratio <2 without significance))		
	5.94 ± 4.63 µL/mg Protein/min	5.94 µL/mg Protein/min	15.1 µL/min/mg	C[C@](N)(Cc1ccc(O)c(O)c1)C(=O)O [Methyldopa, L-(–)-α-methyldopa]	0 (no transport by OCT1, OCT2, and OCT3 occurred (i.e., no kinetic parameters or uptake ratio <2 without significance))		0 (no transport by OCT1, OCT2, and OCT3 occurred (i.e., no kinetic parameters or uptake ratio <2 without significance))		+/− (poor transport with a Clint < 5 or ratio between 1–2 with statistical significance (p < 0.05))	32.2 µM	488 pmol/mg protein/min
